Series [1] has as its target T1, rat TRPV3 (Rattus norvegicus, UniProt Q4QYD9).
T1 construct: expressed in transfected cells
T1 sequence (Q4QYD9 1-791): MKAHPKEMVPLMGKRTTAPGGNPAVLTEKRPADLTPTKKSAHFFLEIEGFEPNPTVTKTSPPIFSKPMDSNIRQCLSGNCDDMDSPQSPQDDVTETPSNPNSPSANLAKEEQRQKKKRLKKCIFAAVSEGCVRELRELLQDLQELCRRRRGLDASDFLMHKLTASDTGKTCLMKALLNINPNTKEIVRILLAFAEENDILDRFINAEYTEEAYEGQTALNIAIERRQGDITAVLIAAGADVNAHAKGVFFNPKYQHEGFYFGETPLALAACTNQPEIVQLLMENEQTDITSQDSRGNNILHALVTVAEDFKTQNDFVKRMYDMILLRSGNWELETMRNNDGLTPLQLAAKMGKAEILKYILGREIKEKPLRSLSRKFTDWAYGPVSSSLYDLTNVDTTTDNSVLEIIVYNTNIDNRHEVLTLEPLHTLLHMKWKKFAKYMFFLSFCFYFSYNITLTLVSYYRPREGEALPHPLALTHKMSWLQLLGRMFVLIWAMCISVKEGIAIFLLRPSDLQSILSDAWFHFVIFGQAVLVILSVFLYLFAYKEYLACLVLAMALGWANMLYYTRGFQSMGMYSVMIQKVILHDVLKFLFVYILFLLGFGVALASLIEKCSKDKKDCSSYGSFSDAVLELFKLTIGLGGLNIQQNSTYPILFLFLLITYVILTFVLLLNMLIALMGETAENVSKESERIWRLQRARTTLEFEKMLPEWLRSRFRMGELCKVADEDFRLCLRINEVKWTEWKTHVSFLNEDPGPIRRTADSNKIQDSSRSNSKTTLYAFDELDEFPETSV
Briefly: Whole-cell patch clamp, cells expressing rat TRPV3. It counts as cell-based. To be noted: rat TRPV3 IC50 converted to mass concentration. The source says: (§1) Whole-cell patch clamp experiments permit the detection of currents through the TRPV3 channel in the cell line described above. A glass electrode is brought into contact with a single cell and the membrane is then ruptured, permitting control of the voltage of the cell membrane and measurement of currents flowing across the membrane using the amplifier attached to the electrode. A perfusion system permits control of the extracellular solution, including the addition of blockers and activators of the current. The current can be activated by heating this solution to 28° C. or warmer or by addition of 20 μM 2-APB to the solution.
(§2) TRPV3 cells were induced 20-48 hours, removed from growth plates, and replated at low density (to attain good single-cell physical separation) on glass coverslips for measurement. In some cases, cells were grown in low density overnight on glass coverslips. Patch clamp recordings were made in the whole-cell mode with a holding potential of −40 mV. […] Currents elicited were quantified at −80 mV and +80 mV. The internal solution consisted of 140 mM cesium aspartate, 10 mM EGTA, 2.27 mM MgCl2, 1.91 mM CaCl2 and 10 mM HEPES, pH to 7.2 with KOH; with 50 nM calculated free Ca^2+. […]
(§3) The plasma levels of a TRPV3 inhibitor (compound 82) were determined via HPLC/MS/MS following administration to male Sprague-Dawley rats.
A general note: The patch-clamp technique gives a direct electrical read-out from membranes.

The subject of series [2] is carrageenan model of acute inflammatory pain. In words: Carrageenan model of acute inflammatory pain (thermal hyperalgesia, Hargreaves). It counts as in vivo, rats. The procedure: As outlined above, the carrageenan model is a model of acute inflammatory pain. As such, it may be used to evaluate effectiveness in relieving pain caused by inflammation, for example, pain due to arthritis.
Briefly, naive rats were pretested for sensitivity to a heat stimulus using the Hargreaves apparatus. The next day, 100 μL of λ-carrageenan was injected into the plantar surface of the right hindpaw approximately 4.5 hours before testing. 30-60 minutes before testing the rats were injected intraperitoneally with vehicle or drug (to evaluate the efficacy of a TRPV3 inhibitor administered IP) or were administered vehicle or drug orally (PO; to evaluate the efficacy of a TRPV3 inhibitor administered orally).
In this study, the drug administered was either a TRPV3 inhibitor (compound 82), the TRPV1 inhibitor, A-425619 (produced by Abbott; maximal efficacious dose, 40 mg/kg IP; El Kouhen et al, 2005, J Pharmacol Exp Ther 314: 400-4091; Honore et al., 2005, J Pharmacol Exp Ther 314: 410-421), or the non-steroidal anti-inflammatory diclofenac. Following administration of both carrageenan and drug or vehicle control, the thermal escape latency was measured. Data are expressed as a percentage comparing the recorded Paw Withdrawal Latencies (PWLs) in seconds to that pre-carrageenan administration.

The nature of series [3]: Plasma levels / pharmacokinetics after IV or oral administration. In kind it is in vivo, male Sprague-Dawley rats. The settings on record: PO suspension 50 mg/kg, rat. On the procedure: as §3
To evaluate pharmacokinetic properties of this TRPV3 inhibitor, rats were administered a single intravenous (IV) bolus dose of […] or an oral dose of a suspension of 50 mg/kg. For intraveneous administration, the TRPV3 inhibitor solution was formulated in PBS/NaOH, pH 10.5, at a target concentration of 0.25 mg/mL. This solution was administered as a rapid bolus (2-3 seconds) at a dose volume of 4 mL/kg via the tail vein of conscious rats or via a jugular vein catheter in anesthetized rats. For oral administration, the TRPV3 inhibitor was formulated as a uniform suspension in CMC (carboxymethylcellulose) at a target concentration of 5 mg/mL, and administered by oral gavage at a dose volume of 10 mL/kg to conscious rats.

The target in series [4] is T2, human TRPV3 (Homo sapiens, UniProt Q8NET8).
T2 construct: expressed in transfected cells; host or cells: HEK293/TREx (Invitrogen), tetracycline-inducible
T2 sequence (Q8NET8 1-790): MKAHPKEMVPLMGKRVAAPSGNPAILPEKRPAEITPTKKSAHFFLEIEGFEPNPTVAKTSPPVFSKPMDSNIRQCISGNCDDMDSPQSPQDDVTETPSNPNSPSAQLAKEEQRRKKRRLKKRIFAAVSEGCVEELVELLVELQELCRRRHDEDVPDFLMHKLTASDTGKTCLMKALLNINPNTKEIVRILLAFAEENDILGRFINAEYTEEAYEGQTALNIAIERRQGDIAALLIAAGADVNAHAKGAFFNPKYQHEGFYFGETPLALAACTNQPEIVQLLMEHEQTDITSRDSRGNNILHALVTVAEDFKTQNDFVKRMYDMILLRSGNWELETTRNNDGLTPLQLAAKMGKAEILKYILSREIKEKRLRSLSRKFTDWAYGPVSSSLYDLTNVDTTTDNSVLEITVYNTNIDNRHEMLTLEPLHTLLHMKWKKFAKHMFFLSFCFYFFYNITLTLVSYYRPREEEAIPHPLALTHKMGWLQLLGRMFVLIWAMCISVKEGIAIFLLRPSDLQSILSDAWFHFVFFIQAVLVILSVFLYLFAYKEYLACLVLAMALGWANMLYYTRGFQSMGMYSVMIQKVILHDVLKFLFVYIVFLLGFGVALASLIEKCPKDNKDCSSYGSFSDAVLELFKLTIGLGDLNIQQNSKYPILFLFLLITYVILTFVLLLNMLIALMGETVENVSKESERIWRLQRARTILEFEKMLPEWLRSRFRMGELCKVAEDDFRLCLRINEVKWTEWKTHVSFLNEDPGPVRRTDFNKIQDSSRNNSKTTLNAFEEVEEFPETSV
In words: Whole-cell patch clamp, cells expressing human TRPV3. To be noted: human TRPV3 IC50 converted to mass concentration. It counts as cell-based.
Excerpt: as §1, §2, §3

A short description of series [5]: Plasma, brain and CSF levels after IP or PO administration. In kind it is in vivo. The settings on record: 0.5, 1, 4 hours post IP 200 or 50 mg/kg or PO 200 mg/kg, rats. The source says:
For each time point evaluated, plasma levels are depicted by the left-most bar, brain levels are depicted by the center bar, and CSF levels are depicted by the right-most bar. […] For each time point evaluated, plasma levels are depicted by the left-most bar, brain levels are depicted by the center bar, and CSF levels are depicted by the right-most bar. […] For each time point evaluated, plasma levels are depicted by the left-most bar, brain levels are depicted by the center bar, and CSF levels are depicted by the right-most bar.

Structures are written as SMILES.

On to `COc1cccc(/C=C/c2nc3ccccc3c(=O)n2-c2ccccc2)c1O` [compound 82], for which the “effective concentration corresponding to IC50” value is around 0.105 µg/mL in series [1] and “approximately 94 ng/mL” in series [4]. The “reduction of thermal hyperalgesia in carrageenan model” value is reported as “effective” in series [2] (IP, 50 mg/kg); “effective” in series [2] (IP, 200 mg/kg); “effective” in series [2] (oral, 200 mg/kg). In addition, the “reducing pain in the carrageenan model” value in series [2] (rats, thermal hyperalgesia) is recorded as “efficacious in reducing pain”. Also, the “estimated half-life (T1/2)” value in series [3] is recorded as “one”. In addition, the “detection in plasma, brain and CSF (central penetration)” value in series [5] was “detected not only in plasma, but also in brain and CSF”.

The values above are taken from patent US7893260B2, “Substituted quinazolin-4-one compounds for antagonizing TRPV3 function” (priority 2005, dated 2011).
